In publication PMC5942844, “Identification and characterization of the Fasciola hepatica sodium- and chloride-dependent taurine transporter” (PLoS Neglected Tropical Diseases, 2018):
Like-named read-outs stand apart in the source and are kept apart here.

What was measured:
[1] = target: T1, F. hepatica taurine transporter (FhTauT) (Fasciola hepatica, UniProt A0A2R4LGM2); assay: cell-based
T1 sequence (A0A2R4LGM2 1-647): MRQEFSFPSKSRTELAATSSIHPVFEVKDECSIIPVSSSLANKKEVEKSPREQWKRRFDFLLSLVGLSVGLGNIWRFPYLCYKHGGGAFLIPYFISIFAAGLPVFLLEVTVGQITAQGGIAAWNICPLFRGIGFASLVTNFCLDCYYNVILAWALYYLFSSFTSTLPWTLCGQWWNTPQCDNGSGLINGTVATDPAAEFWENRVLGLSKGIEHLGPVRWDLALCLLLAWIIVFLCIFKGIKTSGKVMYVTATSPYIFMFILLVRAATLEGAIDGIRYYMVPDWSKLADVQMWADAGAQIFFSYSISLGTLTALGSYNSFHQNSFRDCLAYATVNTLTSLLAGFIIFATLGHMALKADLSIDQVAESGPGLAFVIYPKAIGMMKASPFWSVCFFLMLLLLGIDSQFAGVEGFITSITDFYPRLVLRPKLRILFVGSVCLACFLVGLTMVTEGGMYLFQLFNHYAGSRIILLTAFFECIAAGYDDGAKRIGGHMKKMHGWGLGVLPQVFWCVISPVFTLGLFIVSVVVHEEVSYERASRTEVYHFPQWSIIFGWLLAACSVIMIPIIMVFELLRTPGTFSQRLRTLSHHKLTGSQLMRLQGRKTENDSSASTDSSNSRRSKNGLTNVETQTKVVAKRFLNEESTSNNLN
Protocol: (§1) Human embryonic kidney-293 (HEK293 (ATCC CRL-1573, LGC standards Wesel, Germany)) cells, were grown in Dulbecco`s modified Eagle medium (DMEM) supplemented with 10% fetal bovine serum (FCS Nuaille, France), 100 units/ml penicillin and 100 μg/ml streptomycin at 37°C and with 5% CO2 in a humidified incubator. Cells were transfected with plasmids encoding fluorescently tagged or untagged versions of F. hepatica (FhTauT) and H. sapiens (HsTauT) taurine transporter using Jet Prime transfection reagent (Polyplus-transfection, France). To generate monoclonal cell lines stably expressing the transporters, transfected cells were subjected to and selected with the concentration of 0.2 mg/ml geneticin (G418) for 10 days. Surviving cells forming colonies were separated and analyzed for membrane localization of transporters and transport of taurine. After the selection process cells were kept at 50 μg/ml G418 to keep the selection pressure.
(§2) For saturation uptake experiments, cells were plated the day before the experiment at a density of about 50,000 cells/well onto poly (D-lysine)-coated 48-well culture plates (CytoOne, USA). On the day of the experiment, cells were washed with prewarmed Krebs-HEPES buffer twice (KHB) (120 mM NaCl, 3 mM KCl, 2 mM CaCl2, 2 mM MgCl2, 20 mM glucose, 10 mM HEPES, pH 7.3). Then, cells were incubated in KHB containing tracer amounts (0.1 μM) of [^3H]taurine, (19.1 Ci/mmol) (Perkin Elmer, USA) together with increasing concentrations of non-labeled taurine 10 min. The reaction was terminated after 10 minutes by removing the medium followed by rapid rinsing of cells with ice-cold assay buffer. Subsequently, cells were lysed with 0.5 ml of 1% sodium dodecyl sulfate (SDS) and transferred into scintillation vials for liquid scintillation counting. Non-specific uptake was determined by incubating cells in the presence of the blocker β-alanine (100 mM) before and during the experiment and subtracted from uptake values. Data were fit to a Michaelis-Menten equation.
(§3) Chloride-free KHB was prepared to examine the chloride dependence of both, FhTauT and HsTauT using acetate salts instead of chloride salts. Likewise, NaCl was replaced by choline chloride to examine the sodium requirement. Uptake experiments were performed as described above using 0.1 μM [^3H]taurine in sodium- and chloride-free modified KHB, respectively, mixed with increasing amounts of NaCl containing KHB thereby varying Na^+ and respectively Cl^- concentration from 0–120 mM. The inhibition experiments were performed in analogous manner with 0.1 μM [^3H]taurine and the logarithmically spaced concentrations of inhibitors.

[2] = target: T2, human taurine transporter (HsTauT) (Homo sapiens, UniProt P31641); assay: [3H]taurine uptake by HEK293 cells stably expressing the human taurine transporter; conditions: 0.1 μM [3H]taurine, 10 min
T2 sequence (P31641 1-620): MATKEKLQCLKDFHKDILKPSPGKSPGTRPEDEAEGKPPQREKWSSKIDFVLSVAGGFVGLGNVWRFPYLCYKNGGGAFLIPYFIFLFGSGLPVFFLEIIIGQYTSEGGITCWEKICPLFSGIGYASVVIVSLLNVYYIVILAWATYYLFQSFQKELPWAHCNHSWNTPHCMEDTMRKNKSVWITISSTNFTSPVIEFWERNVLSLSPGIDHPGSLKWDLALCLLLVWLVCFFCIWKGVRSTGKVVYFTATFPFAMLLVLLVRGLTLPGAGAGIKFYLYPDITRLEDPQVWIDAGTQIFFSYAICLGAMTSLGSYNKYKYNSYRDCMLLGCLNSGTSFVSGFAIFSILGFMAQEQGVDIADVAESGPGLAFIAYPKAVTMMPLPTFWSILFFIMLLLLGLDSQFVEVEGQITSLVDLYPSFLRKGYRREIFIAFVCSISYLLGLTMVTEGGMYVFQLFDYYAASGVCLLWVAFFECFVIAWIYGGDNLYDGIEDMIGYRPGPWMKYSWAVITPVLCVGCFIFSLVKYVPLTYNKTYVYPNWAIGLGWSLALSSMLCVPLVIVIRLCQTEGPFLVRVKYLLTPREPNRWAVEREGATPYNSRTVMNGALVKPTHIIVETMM
Protocol: as §1, §2, §3

taurine transporter = system: taurine transporter; set-up: method as in PMID 1435737; conditions: 100 μM β-alanine; cited from earlier work
[3] = target: T1, F. hepatica taurine transporter (FhTauT); assay: [3H]GABA uptake by HEK293 cells expressing the F. hepatica taurine transporter; assay type: cell-based; conditions: 0.3 μM to 3 mM [3H]GABA, three minutes
Protocol: (§4) GABA uptake was assessed by incubating HEK293 cells (10^5/ well) stably expressing the human GABA-transporter-1 (HsGAT1, diamonds), the F. hepatica taurine transporter (FhTauT, circles) and the human taurine transporter (HsTauT, triangles) in KHB containing concentrations of [^3H]GABA covering the range of 0.3 μM to 3 mM for three minutes. The amount of labeled [^3H]GABA was kept constant and the specific activity was progressively diluted by the addition of unlabeled GABA (from 9 Ci/mmol to 9 Ci/mol). The reaction was stopped by the addition of ice-cold KHB followed by three rapid washes. Cells were detached and the accumulated radioactivity was determined by liquid scintillation counting.
(§5) Supplementary file pntd.0006428.s004.tif: S4 Fig [^3H]GABA uptake by the human GABA-transporter-1, the F. hepatica taurine transporter and the human taurine transporter. HEK293 cells (10^5/ well) stably expressing the human GABA-transporter-1 (HsGAT1, diamonds), the F. hepatica taurine transporter (FhTauT, circles) and the human taurine transporter (HsTauT, triangles) were incubated in the presence of the indicated concentrations of [^3H]GABA. The specific activity was progressively diluted by addition of unlabeled GABA (from 9 Ci/mmol to 9 Ci/mol). After three minutes the reaction was stopped and the accumulated radioactivity was determined by liquid scintillation counting. […]

[4] = system: taurine transporter (Slc6a6/TauT); conditions: read-out: reported KM for GABA; cited from earlier work
[5] = target: T2, human taurine transporter (HsTauT); assay: [3H]GABA uptake by HEK293 cells expressing the human taurine transporter; assay type: cell-based; set-up: expressed in transfected cells; conditions: 0.3 μM to 3 mM [3H]GABA, three minutes
Protocol: as §4, §5

SMILES	IC50 [1] [µM]	affinity lower than that of taurine [1]	less potent in inhibiting the F. hepatica than the human transporter ([1]; human, hek293 cells) [fold]	IC50 ([2]; IC50 for inhibition of [3H]taurine uptake) [µM]	inhibition of uptake (taurine transporter)	less potent in inhibiting the F. hepatica than the human transporter [1]	affinity lower than that of taurine ([1]; alternative substrates vs taurine) [fold]	IC50 ([1]; read-out: IC50 for inhibition of [3H]taurine uptake, 0.1 μM [3H]taurine, 10 min) [µM]	IC50 ([2]; read-out: IC50 for inhibition of [3H]taurine uptake) [µM]	uptake of [3H]GABA [3]	uptake of [3H]GABA ([3]; listed as [^3H]GABA)	Km [4] [µM]	uptake of [3H]GABA [5]
NCCC(=O)O [β-alanine]	713 ± 260	about 50 fold	~5	132 ± 54	about 50%	–	–	–	–	–	–	–	–
NCCCC(=O)O [GABA]	–	–	–	–	–	about 3 fold	~350	5600 ± 900	1600 ± 500	not of GABA	failed to detect any uptake	1460	failed to detect any uptake
